Consider twelve molecules from ChEMBL document CHEMBL3044970, “Isoniazid: the magic molecule” (2012).

Type in all cases: functional
The subject of experiment [1] is Mycobacterium tuberculosis. The experiment in a line: Antimicrobial activity against Mycobacterium tuberculosis H37Rv infected macrophage model.
Experiment [2] deals with Mycobacterium tuberculosis. As to the kind of experiment: Antimicrobial activity against Mycobacterium tuberculosis H37Rv.
For experiment [3], the system named is Mycobacterium tuberculosis. As to the kind of experiment: Ratio of INH MIC to compound MIC for Mycobacterium tuberculosis H37Rv.
For experiment [4], the system named is Mycobacterium tuberculosis. The experiment in a line: Antimicrobial activity against Mycobacterium tuberculosis.
For experiment [5], the system named is Mycobacterium tuberculosis. The experiment in a line: Antimicrobial activity against Mycobacterium tuberculosis H4.
The subject of experiment [6] is Mycobacterium tuberculosis. As to the kind of experiment: Antimicrobial activity against Mycobacterium tuberculosis H37Rv by agar dilution method relative to isonicotinoyl hydrazide. In general terms: In agar dilution, organisms are placed on agar that contains the substance at set levels.

In brackets after ≈: the same amount, converted by molar mass.

`O=C1NC(NNC(=O)c2ccncc2)=N/C1=C\c1cccc(Cl)c1` displayed an MIC in experiment [1] of 0.8 µg/mL (≈ 2.34 µM).

In turn, `COc1ccc(C2SCC(=O)N2NC(=O)c2ccncc2)cc1O` (centres undefined) gave an MIC in experiment [2] of 0.31 µg/mL. `COc1ccc(C2C(Cl)C(=O)N2NC(=O)c2ccncc2)cc1O` (centres undefined) returned an MIC in experiment [2] of 0.31 µg/mL. Regarding `COc1cc(C2=NN(C(=O)c3ccncc3)C(c3ccc(O)cc3)C2)ccc1OCC(=O)O` (centres undefined), the Ratio in experiment [3] stood at 5.6. Moreover, in experiment [2], the MIC came to 0.12 µM. Take `O=C(c1ccncc1)N1N=C(c2ccccn2)CC1c1cccc(Cl)c1` (centres undefined): the MIC in experiment [4] and in experiment [5] was 8 µg/mL (≈ 22 µM) throughout. With `O=C(c1ccncc1)N1N=C(c2ccccn2)CC1c1ccc(Cl)cc1` (centres undefined), the MIC in experiment [4] and in experiment [5] was 8 µg/mL (≈ 22 µM) throughout. In the case of `Cc1ccccc1C1CC(c2ccccn2)=NN1C(=O)c1ccncc1` (centres undefined), the MIC in experiment [4] and in experiment [5] was 8 µg/mL (≈ 23.4 µM) throughout.

Take `O=C(c1ccncc1)N1N=C(c2ccccn2)CC1c1ccccc1` (centres undefined): the MIC in experiment [4] and in experiment [5] was 8 µg/mL (≈ 24.4 µM) each time. Consider `O=C(c1ccncc1)N1N=C(c2ccccn2)CC1c1ccccc1Cl` (centres undefined), for which the MIC in experiment [4] and in experiment [5] was 8 µg/mL (≈ 22 µM) each time. With `O=C(NNC(=S)Nc1ccccc1C(F)(F)F)c1ccncc1`, the Ratio in experiment [6] turned out to be 1.24. Also, the MIC in experiment [2] is 0.58 µM.

In experiment [4], `NNC(=O)c1ccncc1` [ISONIAZID] came in with an MIC of 0.05 µg/mL (≈ 0.365 µM). In turn, `CO[C@H]1/C=C/O[C@@]2(C)Oc3c(C)c(O)c4c(O)c(c(/C=N/N5CCN(C)CC5)c(O)c4c3C2=O)NC(=O)/C(C)=C\C=C\[C@H](C)[C@H](O)[C@@H](C)[C@@H](O)[C@@H](C)[C@H](OC(C)=O)[C@@H]1C` [RIFAMPIN] gave an MIC in experiment [2] of 0.2 µg/mL.
